Measured values taken from US20260315436A1, “METHOD OF TREATING DISORDERS WITH SURF1 MALFUNCTION” (Cure Mito Foundation, priority 2023, published 2026).
Entries after “also recorded” stand apart in the source; their conditions may differ.

How the values were obtained:
Format in all cases: cell-based, human
[1] = test system: SURF1-mutant neurons; experiment: Neurite outgrowth in SURF1-mutant neurons (MAP2 high-content imaging)
Procedure: The effect of Sertaconazole in human neurons carrying mutations in the gene SURF1 was measured. Hit compounds were filtered and selected to test their effect on neuronal morphogenesis. CRISPR/Cas9 engineered isogenic SURF1 mutant iPSCs on which neural commitment via overexpression of NGN2 was forced were used.
(§1) FIG. 28A depicts quantification of total neurite area in SURF1-mutant neurons. Each value represents the total neurite area in each well of a 96-well plate. Significant values were calculated using the non-parametric Mann-Whitney test and defective neurite development in SURF1-mutant cells was found FIG. 28B depicts quantification of total neurite area in SURF I-mutant neurons treated with either the DMSO vehicle or Sertaconazole at different concentrations. Neurite area was measured 5 days after induction of NGN2 overexpression, using high-content image analysis of MAP2-positive stained neuronal cells. Each value represents the total neurite area in each well of a 96-well plate.
Hit compounds were filtered and selected to test their effect on neuronal morphogenesis CRISPR/Cas9 engineered isogenic SURF1 mutant iPSCs on which neural commitment via overexpression of NGN2 was forced were used.
as §1, with “plate. […]” for “plate. Significant values were calculated using the non-parametric Mann-Whitney test and defective neurite development in SURF1-mutant cells was found”, “in SURF1-mutant” for “in SURF I-mutant”, “plate. […] FIG. 28C depicts representative images of SURF1 mutant neurons treated with either the DMSO vehicle or Sertaconazole.” for “plate.”

[2] = test system: SURF1-mutant midbrain organoids; experiment: Lactate released in the media by SURF1-mutant midbrain organoids; conditions: 0.1 μM, 1 week; vs DMSO; Mann-Whitney ****p<0.0001
Procedure: (§2) The effect of Sertaconazole in brain organoids carrying mutations in the gene SURF1 was measured.
(§3) FIG. 29A depicts lactate released in the media by SURF1-mutant midbrain organoids compared to isogenic control organoids. There is an aberrant increase of lactate release by SURF1-mutant organoids. FIG. 29B depicts quantification of lactate in the media of SURF1-mutant midbrain organoids that were treated with either DMSO vehicle or 0.1 μM Sertaconazole for 1 week. […] SURF1-mutant midbrain organoids were treated with either the DMSO vehicle or 0.1 μM Sertaconazole for 1 week. […] FIG. 29D depicts representative images of SURF1-mutant midbrain organoids treated with either the DMSO vehicle or Sertaconazole.
FIG. 29A depicts lactate released in the media by SURF1-mutant midbrain organoids compared to isogenic control organoids. The amount of lactate was quantified using a commercial kit. […] FIG. 29B depicts quantification of lactate in the media of SURF1-mutant midbrain organoids that were treated with either DMSO vehicle or 0.1 μM Sertaconazole for 1 week Media was collected and analyzed for lactate content using a commercial kit. […] SURF1-mutant midbrain organoids were treated with either the DMSO vehicle or 0.1 μM Sertaconazole for 1 week. […] Significant values were calculated using the non-parametric Mann-Whitney test. […]

[3] = test system: SURF1-mutant midbrain organoids; experiment: Neuronal staining (TH, MAP2, SMI312) in SURF1-mutant midbrain organoids
Procedure: as §2, §3
FIG. 29A depicts lactate released in the media by SURF1-mutant midbrain organoids compared to isogenic control organoids. The amount of lactate was quantified using a commercial kit. […] FIG. 29B depicts quantification of lactate in the media of SURF1-mutant midbrain organoids that were treated with either DMSO vehicle or 0.1 μM Sertaconazole for 1 week Media was collected and analyzed for lactate content using a commercial kit. […] SURF1-mutant midbrain organoids were treated with either the DMSO vehicle or 0.1 μM Sertaconazole for 1 week. The organoids were then fixed and stained with antibodies against Tyrosine Hydroxylase (TH) (a marker of dopaminergic neurons), MAP2 (a marker for neuronal dendrites), and SMI312 (a marker for neuronal axons). Significant values were calculated using the non-parametric Mann-Whitney test. […] Sertaconazole can represent an effective repositionable drug for children affected by Leigh syndrome.

[4] = test system: GM28010 SURF1 mutant fibroblasts; experiment: Seahorse mitochondrial stress test, fibroblast cell line GM28010 (Experiment 1, single compounds); conditions: 48 h
Procedure: (§4) In order to evaluate selected compounds' impact on mitochondrial function in patient-derived fibroblasts compared to controls, three seahorse assays were conducted, Exp. 1: Fibroblast cell line GM28010—single compounds; Exp. 2. Fibroblast cell line GM28010—combination of compounds+ Single compounds; and Exp. 3: Fibroblast cell line GM28012—single compounds. Seahorse XF24 Extracellular Flux Analyzers continuously measure oxygen concentration and proton flux in the cell supernatant over time (Wu et al., 2007). The oxygen concentration and proton flux measurements are converted in OCR and ECAR values. This enables a direct quantification of mitochondrial respiration and glycolysis. The aim of the seahorse assays is to evaluate the impact of selected compounds on mitochondrial function in patient-derived fibroblasts compared to controls. Compounds used in the seahorse assays include posacanazole, sertaconazole, glabridin, zinglibroside (ginsenoside Z R1), AM281, cysteamine bitrartate, PF-06447475, losmapimod, telepravir, miltefosine, incyclinide, poziotinib, and methylene blue.
Fibroblast cell line GM28010 is a primary human fibroblast cell line obtained from patients with SURF1 Leigh syndrome. It was purchased from the Coriell Cell Repositories (Camden, NJ, repository number GM28010). Cell line GM00038 was used as a healthy control for GM28010 and is a primary human fibroblast purchased from the Coriell Cell Repositories (Camden, NJ, repository number GM00038).
Fibroblasts were grown in glucose according to recommendation.
Cells were plated in XF96 plates in culture medium and were plated at 10,000 cells/well.
The day after plating, cells were treated with the compounds in Table 1. The treatments were completed in glucose medium and galactose medium. The compounds were tested at for 48 hours. The compounds were incubated at (37 C, 5% CO2) until the day of the experiment.
*Fibroblasts were run at passage numbers: GM28010 SURF1 Fibroblasts P5; GM00038F controls P9.
• Assay Medium: 10 mM glucose or galactose DMEM supplemented with 2 mM glutamine and 1 mM pyruvate. • Injection Ports for basal glucose: Port A: 2 μM oligomycin; Port B: 2.5 μM FCCP; Port C: 4 μM FCCP; and Port D: 2 μM rotenone and antimycin A.
Data were normalized to cell number per well after the run. The Hoechst-stained nuclei were counted with the Operetta High-Content Imager.
(§5) • Basal Oxygen Consumption (OCR): This reflects the cellular oxygen usage under basal conditions, encompassing both energy production (ATP turnover) and background oxygen leak from the mitochondria. • Oligomycin Injection: Oligomycin is a compound that inhibits ATP synthase, an enzyme crucial for ATP production within mitochondria. • Oligomycin-resistant Respiration: After oligomycin injection, minimal oxygen consumption persists, representing non-ATP linked oxygen leak from the mitochondria, often termed proton leak. • ATP-linked Respiration: This value is derived by subtracting the oligomycin-resistant respiration from the basal OCR. It signifies the oxygen consumption specifically linked to ATP production through mitochondrial oxidative phosphorylation. • Mitochondrial Bioenergetic Efficiency: This parameter reflects the percentage decrease in oxygen consumption observed after oligomycin injection, indicating the mitochondria's efficiency in utilizing oxygen for ATP generation. • FCCP Injection: FCCP is a chemical that disrupts the link between mitochondrial electron transport and ATP production. • Maximal Respiration: Following FCCP injection, the highest oxygen consumption rate is measured, representing the maximum capacity of the mitochondria to utilize oxygen for respiration. • Spare Respiratory Capacity: This parameter is calculated by subtracting basal respiration from maximal respiration.

[5] = test system: GM28012 SURF1 fibroblasts; experiment: Seahorse mitochondrial stress test, fibroblast cell line GM28012 (Experiment 3, single compounds); conditions: 48 h
Procedure: as §4, §5
GM28010 primary human fibroblasts obtained from patients with SURF1 Leigh syndrome were purchased from the Coriell Cell Repositories (Camden, N.J.; repository number GM28010).
GM00038 primary human fibroblasts purchased from the Coriell Cell Repositories (Camden, N.J., repository number GM00038) and were used as a healthy control.
Fibroblasts were grown in glucose according to recommendation. Cells were plated in XF96 plates in culture medium and plated at 10,000 cells/well. The day after plating, the cells were treated with the compounds. The treatments completed in glucose medium and galactose medium. The compounds were tested at for 48 hours. The compounds were incubated at (37 C, 5% CO2) until the day of the experiment. The fibroblasts were run at passage numbers: GM28012 SURF1 Fibroblasts P5.
The assay medium was 10 mM glucose or galactose DMEM supplemented with 2 mM glutamine and 1 mM pyruvate. Injection Ports for basal glucose: Port A: 2 μM oligomycin; Port B: 2.5 μM FCCP; Port C: 4 μM FCCP; and Port D: 2 μM rotenone and antimycin A.
The data were normalized to cell number per well after the run. The Hoechst-stained nuclei were counted with a Operetta High-Content Imager.

[6] = glucose and galactose conditions

Clc1ccc(C(Cn2ccnc2)OCc2csc3c(Cl)cccc23)c(Cl)c1 (stereo not shown) [Sertaconazole, sertaconazole]
total neurite area (defective neurite development in SURF1-mutant cells) ([1]; 5 days after NGN2 induction, vs DMSO, Mann-Whitney **p<0.01): correction of defective neurite development
neuromorphogenesis defects in SURF1-mutant neurons ([1]; FIG. 28): ameliorates neuromorphogenesis defects
rescue of neurite outgrowth capacity ([1]; NGN2-induced SURF1 mutant neurons, FIG. 28): dose-dependent rescue of neurite outgrowth capacity
amount of lactate released to the media [2]: reduced the aberrant release of lactate; also recorded: decreases the aberrant amount of lactate
amount of TH-positive dopaminergic neurons ([3]; 0.1 μM, 1 week, vs DMSO): increased the amount of TH-positive dopaminergic neurons; also recorded: increase in TH neurons was evident but did not reach statistical significance
overall neuronal branching organization ([3]; 0.1 μM, 1 week, vs DMSO): rescued the overall neuronal branching organization
amount of neuronal processes ([3]; 0.1 μM, 1 week, vs DMSO, Mann-Whitney *p<0.05): corrected the increased the amount of neuronal processes
neuromorphogenesis and lactate defects in SURF1-mutant midbrain organoids ([3]; FIG. 29): ameliorates neuromorphogenesis and lactate defects
ATP production [4]: no effect on ATP production
maximal OCR ([4]; all concentrations): ↓ maximal OCR@ all conc;
respiration [4, 6]: did not result in major changes
respiration [5, 6]: decreased respiration
ATP production through glycolysis ([5]; higher concentrations): increased ATP production through glycolysis; also recorded: lower concentration; ↑ATP
